ChEMBL document CHEMBL1201862, “PubChem BioAssay data set” (2004)
Activity calls are given as the source filed them.

Legend:
[1] = target: Intestinal-type alkaline phosphatase (Homo sapiens, UniProt P09923); assay: activation of human intestinal alkaline phosphatase – biochemical, dose response (AID 488873); type: functional
[2] = target: Intestinal-type alkaline phosphatase (Mus musculus, UniProt P24822); assay: PubChem AID 488785; type: functional
[3] = target: T1, Alkaline phosphatase, tissue-nonspecific isozyme (Homo sapiens, UniProt P05186); assay: TNAP enzyme inhibition by screening hits, dose response, selectivity assay for mouse IAP inhibitor project, biochemical, human TNAP, uHTS hits (AID 488906); type: functional
T1 sequence (P05186 whole entry): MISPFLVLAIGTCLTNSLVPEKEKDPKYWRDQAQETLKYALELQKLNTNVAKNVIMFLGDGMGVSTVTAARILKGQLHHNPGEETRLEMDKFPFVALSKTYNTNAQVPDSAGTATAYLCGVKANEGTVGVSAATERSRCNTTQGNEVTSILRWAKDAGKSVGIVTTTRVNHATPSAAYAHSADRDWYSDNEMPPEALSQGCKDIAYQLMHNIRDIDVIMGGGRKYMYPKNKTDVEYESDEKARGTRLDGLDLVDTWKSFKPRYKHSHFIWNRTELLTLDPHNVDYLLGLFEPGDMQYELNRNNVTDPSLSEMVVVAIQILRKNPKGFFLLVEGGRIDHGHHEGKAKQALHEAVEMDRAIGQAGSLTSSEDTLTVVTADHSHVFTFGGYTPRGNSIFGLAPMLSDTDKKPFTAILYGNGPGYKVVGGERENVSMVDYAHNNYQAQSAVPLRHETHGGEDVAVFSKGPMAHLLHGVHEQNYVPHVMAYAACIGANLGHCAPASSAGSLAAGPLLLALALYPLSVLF

[4] = target: Voltage-dependent T-type calcium channel subunit alpha-1H (Homo sapiens, UniProt O95180); type: functional;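 note: channel activity triggered by adding a high calcium stimulation buffer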
Estrogen receptor = target: T2, Estrogen receptor (Homo sapiens, UniProt P03372);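 note: potency for inhibiting coactivator peptide recruitment to the receptor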
T2 sequence (P03372 whole entry): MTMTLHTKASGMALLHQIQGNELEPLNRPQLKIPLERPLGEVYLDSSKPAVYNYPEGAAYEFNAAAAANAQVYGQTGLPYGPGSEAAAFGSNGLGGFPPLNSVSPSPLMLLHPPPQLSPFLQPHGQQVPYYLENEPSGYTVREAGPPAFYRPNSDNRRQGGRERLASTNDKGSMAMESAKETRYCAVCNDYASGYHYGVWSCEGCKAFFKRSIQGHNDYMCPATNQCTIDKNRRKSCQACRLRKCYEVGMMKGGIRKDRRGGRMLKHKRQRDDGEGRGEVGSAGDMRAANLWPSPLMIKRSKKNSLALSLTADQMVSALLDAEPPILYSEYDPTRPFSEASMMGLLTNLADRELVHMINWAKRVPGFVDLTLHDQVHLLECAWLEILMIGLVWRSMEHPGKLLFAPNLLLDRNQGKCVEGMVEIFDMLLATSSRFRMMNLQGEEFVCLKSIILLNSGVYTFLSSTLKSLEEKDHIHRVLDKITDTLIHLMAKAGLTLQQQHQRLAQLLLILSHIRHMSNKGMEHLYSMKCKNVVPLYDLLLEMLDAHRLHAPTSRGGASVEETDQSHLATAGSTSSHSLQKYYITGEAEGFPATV

Vero = assay: cells; type: functional; conditions: Chlorocebus sabaeus
[5] = viability of PTEN-deleted HCT116 cells – cell-based, HCT116 PTEN knockout, dose response (AID 1047); type: functional;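 note: HCT116 colon tumor cells with PTEN knocked out; cells exposed to compound for 60 hours before readout; potency for loss of cell viability measured by luminescence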
[6] = viability of HCT116 lacking mutant beta-catenin – cell-based, human colon tumor, dose response (AID 1045); type: functional;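 note: HCT116 colon tumor cells with beta catenin knocked out; cells exposed to compound for 60 hours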
INS1 = assay: INS-1E survival protection against cytokine death – cell-based, luminescence, retest, dose response (AID 449756); type: functional; conditions: Rattus norvegicus;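 note: cell death triggered by IL-1 beta plus TNF-alpha plus IFN-gamma mixture; protective hits raise ATP signal compared with cytokine alone wells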
Caspase-3 = target: T3, Caspase-3 (Homo sapiens, UniProt P42574); type: functional;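 note: Dose-response selectivity test against caspase-3 for candidate inhibitors of sentrin-specific proteases (SENPs)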
T3 sequence (P42574 whole entry): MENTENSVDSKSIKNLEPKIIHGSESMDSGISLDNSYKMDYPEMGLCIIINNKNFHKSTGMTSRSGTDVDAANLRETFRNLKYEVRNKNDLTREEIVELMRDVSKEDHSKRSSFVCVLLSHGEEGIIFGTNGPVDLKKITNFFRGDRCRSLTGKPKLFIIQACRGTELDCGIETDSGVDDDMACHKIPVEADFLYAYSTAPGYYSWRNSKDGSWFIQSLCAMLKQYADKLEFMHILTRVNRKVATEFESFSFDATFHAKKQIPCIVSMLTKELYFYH

[7] = target: T4, Sentrin-specific protease 7 (Homo sapiens, UniProt Q9BQF6); type: functional;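 note: Luminescence-based dose-response confirmation of ultra-high-throughput screening hits, measuring inhibition of SENP7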
T4 sequence (Q9BQF6 whole entry): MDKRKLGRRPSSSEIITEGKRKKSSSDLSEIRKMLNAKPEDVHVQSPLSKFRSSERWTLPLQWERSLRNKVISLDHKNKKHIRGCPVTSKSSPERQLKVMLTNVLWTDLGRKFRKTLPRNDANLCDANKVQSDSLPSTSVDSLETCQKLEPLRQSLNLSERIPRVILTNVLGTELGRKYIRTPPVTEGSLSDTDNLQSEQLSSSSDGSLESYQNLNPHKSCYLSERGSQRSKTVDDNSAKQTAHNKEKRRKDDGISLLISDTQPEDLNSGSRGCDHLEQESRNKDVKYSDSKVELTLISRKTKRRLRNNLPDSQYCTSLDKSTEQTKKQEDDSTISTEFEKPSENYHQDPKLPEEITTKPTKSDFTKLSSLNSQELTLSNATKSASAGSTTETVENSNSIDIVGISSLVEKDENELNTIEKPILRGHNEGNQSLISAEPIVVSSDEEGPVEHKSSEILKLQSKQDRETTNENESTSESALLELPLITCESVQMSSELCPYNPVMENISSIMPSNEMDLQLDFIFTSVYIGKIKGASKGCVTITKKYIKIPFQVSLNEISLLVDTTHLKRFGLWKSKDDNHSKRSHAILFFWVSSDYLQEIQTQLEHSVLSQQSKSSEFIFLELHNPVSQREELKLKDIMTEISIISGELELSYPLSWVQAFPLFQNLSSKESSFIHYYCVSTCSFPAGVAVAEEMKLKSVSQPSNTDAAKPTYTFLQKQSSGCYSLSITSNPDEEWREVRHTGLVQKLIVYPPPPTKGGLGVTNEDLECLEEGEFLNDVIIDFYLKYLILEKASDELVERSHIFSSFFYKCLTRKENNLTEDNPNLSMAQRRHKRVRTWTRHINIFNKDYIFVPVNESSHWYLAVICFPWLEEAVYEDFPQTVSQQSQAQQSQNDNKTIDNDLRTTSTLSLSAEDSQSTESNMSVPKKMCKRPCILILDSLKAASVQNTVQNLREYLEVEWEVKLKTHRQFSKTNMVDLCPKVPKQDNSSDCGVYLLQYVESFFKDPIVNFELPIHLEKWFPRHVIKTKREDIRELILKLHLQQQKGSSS

[8] = target: T5, Sentrin-specific protease 6 (Homo sapiens, UniProt Q9GZR1); type: functional;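 note: Luminescence-based dose-response confirmatory assay of SENP6 inhibition, following up an ultra-high-throughput screen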
T5 sequence (Q9GZR1 whole entry): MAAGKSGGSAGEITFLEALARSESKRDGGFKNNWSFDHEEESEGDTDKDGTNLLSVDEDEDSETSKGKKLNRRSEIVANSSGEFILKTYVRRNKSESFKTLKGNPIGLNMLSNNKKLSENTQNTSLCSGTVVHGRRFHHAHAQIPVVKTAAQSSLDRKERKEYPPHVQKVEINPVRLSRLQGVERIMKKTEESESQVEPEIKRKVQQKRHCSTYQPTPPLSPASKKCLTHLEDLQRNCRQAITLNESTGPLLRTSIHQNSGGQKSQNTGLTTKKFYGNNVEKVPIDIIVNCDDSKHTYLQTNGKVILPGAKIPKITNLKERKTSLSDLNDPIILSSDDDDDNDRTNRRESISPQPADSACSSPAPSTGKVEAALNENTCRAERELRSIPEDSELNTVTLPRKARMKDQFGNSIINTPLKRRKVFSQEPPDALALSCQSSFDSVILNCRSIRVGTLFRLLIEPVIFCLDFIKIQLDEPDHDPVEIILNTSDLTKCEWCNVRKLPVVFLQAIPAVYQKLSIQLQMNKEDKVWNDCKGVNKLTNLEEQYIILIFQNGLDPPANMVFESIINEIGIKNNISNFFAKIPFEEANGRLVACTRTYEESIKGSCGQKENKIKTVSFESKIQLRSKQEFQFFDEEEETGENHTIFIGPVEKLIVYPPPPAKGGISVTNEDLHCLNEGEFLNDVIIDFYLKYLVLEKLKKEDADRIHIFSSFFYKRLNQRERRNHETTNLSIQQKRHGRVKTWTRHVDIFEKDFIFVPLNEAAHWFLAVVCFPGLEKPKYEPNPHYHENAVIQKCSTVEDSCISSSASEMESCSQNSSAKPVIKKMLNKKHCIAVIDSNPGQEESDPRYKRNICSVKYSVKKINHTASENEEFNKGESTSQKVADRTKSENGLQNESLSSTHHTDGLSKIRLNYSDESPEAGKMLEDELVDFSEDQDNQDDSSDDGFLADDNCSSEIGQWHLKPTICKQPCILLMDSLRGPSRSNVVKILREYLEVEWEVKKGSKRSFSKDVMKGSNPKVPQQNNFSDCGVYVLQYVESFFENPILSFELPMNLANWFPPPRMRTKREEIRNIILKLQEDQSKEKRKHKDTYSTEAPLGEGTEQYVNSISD

[9] = target: T6, Sentrin-specific protease 8 (Homo sapiens, UniProt Q96LD8); type: functional;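 note: luminescence read-out of SENP8 inhibition, dose-response confirmation following an ultra-high-throughput screen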
T6 sequence (Q96LD8 whole entry): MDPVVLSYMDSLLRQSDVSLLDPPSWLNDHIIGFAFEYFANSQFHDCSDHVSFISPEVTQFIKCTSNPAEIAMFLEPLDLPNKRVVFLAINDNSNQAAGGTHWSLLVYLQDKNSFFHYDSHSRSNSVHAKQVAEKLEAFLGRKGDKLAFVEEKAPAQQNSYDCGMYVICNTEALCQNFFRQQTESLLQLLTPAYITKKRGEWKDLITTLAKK

[10] = target: T7, Carboxy-terminal domain RNA polymerase II polypeptide A small phosphatase 1 (Homo sapiens, UniProt Q9GZU7); assay: CTDSP1 inhibitors, concentration-response, biochemical, absorbance readout, ultra-high-throughput screen actives (AID 540297); type: functional
T7 sequence (Q9GZU7 whole entry): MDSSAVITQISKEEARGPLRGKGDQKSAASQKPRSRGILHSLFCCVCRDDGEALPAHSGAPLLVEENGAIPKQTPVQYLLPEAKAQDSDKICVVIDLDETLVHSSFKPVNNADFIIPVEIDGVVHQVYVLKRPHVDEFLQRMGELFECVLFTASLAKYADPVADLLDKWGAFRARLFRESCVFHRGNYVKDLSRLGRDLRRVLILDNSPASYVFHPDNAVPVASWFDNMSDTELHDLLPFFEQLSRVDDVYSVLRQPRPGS

HEK293 [11] = assay: inhibition of NOD1-driven NF-kB reporter – cell-based, luminescence, uHTS, primary screen (AID 1578); type: functional; conditions: Homo sapiens
HEK293 [12] = assay: cells; type: functional, cell-based; conditions: Homo sapiens
HEK293 [13] = assay: cells; type: functional, cell-based; conditions: Homo sapiens; remark: listed apart in the source
HEK293 [14] = assay: NOD2 signaling inhibitors in MDP-stimulated cells, cell-based, uHTS, luminescence (AID 2001); type: functional; conditions: Homo sapiens
[15] = Luminescence Cell-Based Dose Retest to Confirm Inhibitors of Cancer Stem Cells. [Related pubchem assays (depositor defined):AID2717, AID2721]; type: functional, Homo sapiens; conditions: Homo sapiens

Chain of Voltage-dependent T-type calcium channel subunit alpha-1H (O95180 whole entry): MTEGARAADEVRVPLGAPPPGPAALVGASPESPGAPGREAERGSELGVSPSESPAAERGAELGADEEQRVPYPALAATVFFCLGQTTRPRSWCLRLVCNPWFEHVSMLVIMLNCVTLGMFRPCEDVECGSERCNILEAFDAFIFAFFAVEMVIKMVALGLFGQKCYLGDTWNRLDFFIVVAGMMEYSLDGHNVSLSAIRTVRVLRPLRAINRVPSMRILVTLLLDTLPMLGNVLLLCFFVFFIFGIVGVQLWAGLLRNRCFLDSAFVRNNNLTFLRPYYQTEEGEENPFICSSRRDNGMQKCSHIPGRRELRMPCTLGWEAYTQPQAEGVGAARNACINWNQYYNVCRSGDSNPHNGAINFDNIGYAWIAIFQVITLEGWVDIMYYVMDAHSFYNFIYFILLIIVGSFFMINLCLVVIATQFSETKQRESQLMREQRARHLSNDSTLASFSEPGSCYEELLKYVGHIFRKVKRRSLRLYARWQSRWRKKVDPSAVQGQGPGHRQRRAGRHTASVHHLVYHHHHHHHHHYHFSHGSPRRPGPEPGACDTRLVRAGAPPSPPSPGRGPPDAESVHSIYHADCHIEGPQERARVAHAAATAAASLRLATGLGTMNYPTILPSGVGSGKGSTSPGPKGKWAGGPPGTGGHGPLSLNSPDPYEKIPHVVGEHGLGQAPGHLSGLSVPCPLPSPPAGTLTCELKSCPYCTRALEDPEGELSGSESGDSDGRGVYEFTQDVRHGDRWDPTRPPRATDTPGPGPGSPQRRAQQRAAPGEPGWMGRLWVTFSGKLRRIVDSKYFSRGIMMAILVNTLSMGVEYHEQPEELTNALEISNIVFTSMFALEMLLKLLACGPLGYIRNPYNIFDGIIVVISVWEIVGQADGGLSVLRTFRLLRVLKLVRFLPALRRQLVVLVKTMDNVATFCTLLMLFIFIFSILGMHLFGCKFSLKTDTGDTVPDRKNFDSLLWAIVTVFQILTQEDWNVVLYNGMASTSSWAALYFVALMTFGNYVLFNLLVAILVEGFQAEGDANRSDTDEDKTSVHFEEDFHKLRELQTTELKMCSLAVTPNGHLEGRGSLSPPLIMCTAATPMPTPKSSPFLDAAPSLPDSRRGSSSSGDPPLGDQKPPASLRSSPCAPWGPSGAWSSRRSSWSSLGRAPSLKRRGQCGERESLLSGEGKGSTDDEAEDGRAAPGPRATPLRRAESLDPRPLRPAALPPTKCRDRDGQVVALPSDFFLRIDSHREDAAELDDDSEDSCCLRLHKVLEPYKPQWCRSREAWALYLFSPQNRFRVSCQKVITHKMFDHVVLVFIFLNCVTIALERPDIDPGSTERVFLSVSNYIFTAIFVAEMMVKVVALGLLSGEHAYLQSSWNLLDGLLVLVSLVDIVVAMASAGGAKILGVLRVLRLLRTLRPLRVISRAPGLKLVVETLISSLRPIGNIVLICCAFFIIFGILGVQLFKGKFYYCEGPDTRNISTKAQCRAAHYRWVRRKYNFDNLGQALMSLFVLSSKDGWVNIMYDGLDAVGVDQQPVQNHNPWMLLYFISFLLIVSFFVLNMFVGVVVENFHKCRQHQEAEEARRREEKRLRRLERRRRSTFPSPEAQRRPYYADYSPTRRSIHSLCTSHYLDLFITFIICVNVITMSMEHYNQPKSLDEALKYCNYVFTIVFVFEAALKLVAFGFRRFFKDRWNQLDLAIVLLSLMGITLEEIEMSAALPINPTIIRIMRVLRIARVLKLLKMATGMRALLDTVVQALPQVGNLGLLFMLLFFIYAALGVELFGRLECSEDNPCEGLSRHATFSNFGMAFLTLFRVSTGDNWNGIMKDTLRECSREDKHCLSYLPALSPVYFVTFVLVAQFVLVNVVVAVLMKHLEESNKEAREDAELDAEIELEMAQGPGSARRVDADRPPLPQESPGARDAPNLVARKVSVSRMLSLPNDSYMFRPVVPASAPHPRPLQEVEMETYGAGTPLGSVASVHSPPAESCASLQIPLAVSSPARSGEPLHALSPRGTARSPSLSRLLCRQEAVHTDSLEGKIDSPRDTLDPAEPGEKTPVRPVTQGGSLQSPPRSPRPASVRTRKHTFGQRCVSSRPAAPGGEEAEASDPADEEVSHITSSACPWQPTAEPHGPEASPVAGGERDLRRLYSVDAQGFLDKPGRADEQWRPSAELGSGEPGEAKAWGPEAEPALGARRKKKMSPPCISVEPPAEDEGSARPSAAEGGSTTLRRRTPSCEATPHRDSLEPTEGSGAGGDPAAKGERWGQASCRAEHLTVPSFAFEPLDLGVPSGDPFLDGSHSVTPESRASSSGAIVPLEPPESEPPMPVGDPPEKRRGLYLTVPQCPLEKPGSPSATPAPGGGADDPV
Chain of Intestinal-type alkaline phosphatase (Homo sapiens, UniProt P09923) (P09923 whole entry): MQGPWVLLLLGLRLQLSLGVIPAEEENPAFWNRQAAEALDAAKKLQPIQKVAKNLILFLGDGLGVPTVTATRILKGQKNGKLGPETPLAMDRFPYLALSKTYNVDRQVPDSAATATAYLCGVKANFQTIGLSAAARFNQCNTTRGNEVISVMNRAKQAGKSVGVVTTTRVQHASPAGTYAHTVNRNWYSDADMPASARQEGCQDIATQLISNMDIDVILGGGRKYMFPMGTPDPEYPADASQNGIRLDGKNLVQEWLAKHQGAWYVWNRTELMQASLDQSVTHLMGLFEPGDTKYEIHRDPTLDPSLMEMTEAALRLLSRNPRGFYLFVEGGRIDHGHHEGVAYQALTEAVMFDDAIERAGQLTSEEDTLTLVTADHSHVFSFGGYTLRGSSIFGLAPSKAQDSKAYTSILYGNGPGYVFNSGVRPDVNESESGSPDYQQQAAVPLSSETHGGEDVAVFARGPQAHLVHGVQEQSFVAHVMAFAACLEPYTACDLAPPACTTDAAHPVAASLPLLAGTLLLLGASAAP
Chain of Intestinal-type alkaline phosphatase (Mus musculus, UniProt P24822) (P24822 whole entry): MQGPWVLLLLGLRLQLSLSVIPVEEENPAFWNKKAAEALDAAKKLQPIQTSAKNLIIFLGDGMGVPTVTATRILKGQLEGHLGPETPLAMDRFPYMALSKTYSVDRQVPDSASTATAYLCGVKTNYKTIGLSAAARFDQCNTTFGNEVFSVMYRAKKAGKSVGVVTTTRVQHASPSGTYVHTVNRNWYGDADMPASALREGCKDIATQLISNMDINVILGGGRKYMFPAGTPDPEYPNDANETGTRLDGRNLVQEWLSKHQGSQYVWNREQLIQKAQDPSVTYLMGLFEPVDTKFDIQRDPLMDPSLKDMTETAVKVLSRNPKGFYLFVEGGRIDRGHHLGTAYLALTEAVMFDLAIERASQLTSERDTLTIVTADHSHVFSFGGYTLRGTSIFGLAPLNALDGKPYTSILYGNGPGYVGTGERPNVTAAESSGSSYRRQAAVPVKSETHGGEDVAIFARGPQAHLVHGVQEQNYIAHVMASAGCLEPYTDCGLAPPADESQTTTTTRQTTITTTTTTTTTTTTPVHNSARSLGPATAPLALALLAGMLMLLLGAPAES

Structure (SMILES): COc1ccccc1CNC(=O)CCNS(=O)(=O)c1ccc2[nH]c(=O)oc2c1
- EC50 [1]: 45.1 µM (active)
- IC50 [2]: 11.4 µM (active)
- IC50 [3]: 27.5 µM (active)

Structure (SMILES): COc1cccc(CNC(=O)CSCc2cnn(-c3ccccc3)c2-n2cccc2)c1
- EC50 [4]: 3.66 µM (active)

Structure (SMILES): CCOC(=O)[N-]c1cn(N2CCOCC2)n[o+]1 [MOLSIDOMINE]
- IC50 (Estrogen receptor): 24.7 µM (active)

Structure (SMILES): Cc1cc(N2CCC(C(=O)Nc3ccc(F)cc3)CC2)nc(-c2ccccc2)n1
- EC50 [4]: 4.26 µM (active)

Structure (SMILES): CCCCCC(=O)N1C[C@H](O)[C@@H](n2cc(-c3ccc(F)cc3)nn2)C[C@@H]1c1ccc(Cl)cc1
- CC50 (Vero): > 25 µM (active)

Structure (SMILES): C=CCn1c(COc2cccc(C)c2)nnc1SCC(=O)NC(=O)NCc1ccco1
- IC50 (Estrogen receptor): 14.8 µM (active)

Structure (SMILES): COc1ccc(NCc2nnc(SCC(=O)Nc3nc(-c4ccccc4)cs3)n2-c2ccccc2)cc1
- EC50 [5]: 2.78 µM (active)
- EC50 [6]: 2.54 µM (active)
- AC50 (INS1): 6.62 µM (active)
- CC50 (Vero): 8.35 µM (active)

Structure (SMILES): O=C(Nc1ccc2ccccc2c1)c1cccc(F)c1
- IC50 (Caspase-3): 18.3 µM (active)
- IC50 [7]: 4.43 µM (active)
- IC50 [8]: 5.72 µM (active)
- IC50 [9]: > 100 µM (inactive)

Structure (SMILES): FC(F)(F)c1cc(C(F)(F)F)c2ccc(Oc3ccccc3)nc2n1
- EC50 [4]: 4.65 µM (active)

Structure (SMILES): Cc1ccccc1CSCC(=O)NC(=O)NCc1ccco1
- IC50 (Estrogen receptor): 9.27 µM (active)
- IC50 [10]: 10.4 µM (active)

Structure (SMILES): COC(=O)c1scc(S(=O)(=O)C(C)C)c1N/N=C(\C#N)C(=O)c1ccc(Cl)cc1
- EC50 (HEK293 [11]): 2.17 µM (active)
- IC50 (HEK293 [12]): > 20 µM (inactive)
- IC50 (HEK293 [13]): > 20 µM (inactive)
- IC50 (HEK293 [14]): > 20 µM (inactive)

Structure (SMILES): CCn1c(CNc2ccc(Cl)cc2)nnc1SCC(=O)OC1CCCCC1
- EC50 [4]: 2.56 µM (active)

Structure (SMILES): Nc1ccccc1N/C=C1\C(=O)NC(=O)N(CCC2=CCCCC2)C1=O
- IC50 (Estrogen receptor): > 50 µM (not active)
- AC50 [15]: 81.2 µM (active)
- AC50 (INS1): 28.2 µM (active)

Structure (SMILES): Cc1ccc(S(=O)(=O)Nc2ccc3nc(-c4cccn4C)[nH]c3c2)cc1
- EC50 [4]: 5.6 µM (active)
